# Measured values: patent US8314123B2, “5, 6, or 7-substituted -3-(hetero) arylisoquinolinamine derivatives and therapeutic use thereof” (Rexahn Pharmaceuticals, Inc., priority 2006, dated 2012)
# System: HCT116 cells
# Experiment: In vitro cell cycle analysis (PI staining)
# Format: cell-based, Human
# Settings: HCT116, 0.3 uM, 12 hours; DMSO control 20.5
# Experimental: (§1) Cancer cell lines to determine the effect of 5, 6, or 7-substituted-3-(hetero)arylisoquinolinamine compounds were obtained from the following sources: Human MDA-MB-231 (breast), PC3 (prostate), HCT-15 (colon), HCT116 (colon), OVCAR-3 (ovary), Caki-1 (kidney), PANC-1 (pancreas), SNB-19 (glioblastoma) and SK-MEL-28 (melanoma) from the American Type Culture Collection (ATCC) (Manassas, Va.). PC3, OVCAR-3, SK-MEL-28 and SNB-19 were grown in RPMI1640 medium (Invitrogen, Carlsbad, Calif.) supplemented with 10% fetal bovine serum (“FBS”), 1 mM sodium pyruvate, 10 mM HEPES and 100 U/ml penicillin and 100 μg/ml streptomycin (“P/S”). MDA-MB-231, Caki-1, HCT-15 (colon) and PANC-1 cells were maintained in Dulbecco's modified Eagle's medium (“DMEM”, Invitrogen) supplemented with 10% FBS, P/S and 10 mM HEPES. HCT116 cells were maintained in DMEM supplemented with 10% FBS, P/S and 10 mM HEPES for in vitro cell proliferation assay and in RPMI1640 medium supplemented with 10% FBS, 1 mM sodium pyruvate, 10 mM HEPES and P/S for in vitro cell cycle analysis. All cells were incubated at 37° C. under humidified 5% CO2.
# This assay was used to determine the ability of 5, 6, or 7-substituted-3-(hetero)arylisoquinolinamine compounds to arrest cells at a specific phase during cell cycle. The day before drug treatment, HCT116 cells were plated at 50-70% saturation in a 10 cm dish in RPMI1640 medium with 10% FBS and then incubated overnight in a humidified 37° C. incubator with 5% CO2. The following day RPMI1640 medium (with 10% FBS) carrying the appropriate concentration of test compound solubilized in DMSO was added to the dishes. No compound control treatment was also included (0.25% DMSO). The cells were then incubated for 12 hours and were harvested by centrifugation at 7,000 rpm for 5 minutes. Cell pellets were resuspended in 0.2 ml of PBS containing 0.1% glucose and 2% FBS. Subsequently, 5 ml ice-cold 70% ethanol was added dropwise with shaking and the treated cells were stored at −20° C. at least 30 minutes. Cells were centrifuged at 2,000 rpm for 5 minutes and washed once with 1 ml PBS with 0.1% glucose and 2% FBS. After removal of the supernatant, cells were resuspended in 0.5 ml of 70 μM propium iodide (PI) solution containing 0.1% Triton X-100, 40 mM sodium citrate, pH 7.4. RNase was added at 50 μg/ml final concentration and cells were incubated at 37° C. for 30 minutes. PI stained cells were analyzed by Guava PCA-AFP instrument using its cell cycle software program (Guava Technologies, Hayward, Calif.) and expressed as percentage of cells in G1, S and G2/M phases of the cell cycle.
row,SMILES,% Cells in S
1,"Cc1ccc2cc(-c3c(C)cccc3C)nc(N)c2c1 [Compound 43, 7-Methyl-3-(2,6-dimethylphenyl)isoquinolin-1-amine]",10.8%

# Same assay, conditions: HCT116, 0.3 uM, 12 hours; DMSO control 39.4
row,SMILES,% Cells in G1
1,"Cc1ccc2cc(-c3c(C)cccc3C)nc(N)c2c1 [Compound 43, 7-Methyl-3-(2,6-dimethylphenyl)isoquinolin-1-amine]",15.3%

# Same assay, conditions: HCT116, 0.3 uM, 12 hours; DMSO control 40.1
row,SMILES,% Cells in G2/M
1,"Cc1ccc2cc(-c3c(C)cccc3C)nc(N)c2c1 [Compound 43, 7-Methyl-3-(2,6-dimethylphenyl)isoquinolin-1-amine]",73.9%

# System: human cancer cell lines
# Experiment: Growth inhibition against the panel of human tumor cell lines (SRB), overall statements
# Format: cell-based
# Settings: Table 3 cell lines
# Experimental: as §1
# (§2) The growth inhibition of the 5, 6, or 7-substituted-3-(hetero)arylisoquinolinamine derivatives against a variety of human tumor cells was evaluated to study the relative importance of particular substituent groups on the compounds. The 5, 6, or 7-substituted-3-(hetero)arylisoquinolinamine derivatives, prepared as described above, were tested with DMSO as a control.
# (§3) The growth inhibition assay of representative 5, 6, or 7-substituted-3-(hetero)arylisoquinolinamine derivatives against human tumor cell lines was performed using the Sulforhodamine B (“SRB”) method (Skehan et al., J. National Cancer Institute, 82: 1107-1112 (1990)). Briefly, exponentially growing tumor cells were seeded into a 96-well plate at a density of 2-3×10^3 cells/well and treated with 5, 6, or 7-substituted-3-(hetero)arylisoquinolinamine compounds the next day. Triplicate wells were used for each treatment. The cells were incubated with the various compounds for 96 hours at 37° C. in a humidified 5% CO2 atmosphere. After 96-hour incubation, cells were fixed with 10% trichloroacetic acid (“TCA”), incubated for 1 hour at 4° C., and washed 3 times with tap water. Subsequently, cells were stained with 0.4% sulforhodamine B in 1% acetic acid for 30 minutes, washed 4 times with 1% acetic acid, and air-dried again. After 5 minutes agitation in 10 mM Tris solution, the absorbance of each well was measured at 530 nm using Benchmark Plus Microplate reader (Bio-Rad Laboratories, Hercules, Calif.).
# (§4) To translate the OD530 values into the number of live cells in each well, the OD530 values were compared to those on standard OD530-versus-cell number curves generated for each cell line. The percent survival was calculated using the formula: % Survival=live cell number [test]/live cell number [control]×100
# (§5) The IC50 values were calculated by non-linear regression analysis.
# Using QSAR and medicinal chemistry techniques, a large number of compounds, including the compounds shown in Table 1-2 above, were synthesized. The synthesized compounds were screened against at least four cancer cell lines, PANC-1, MDA-MB-231, HCT116 and Caki-1, at approximately 1 μM concentration. Compounds showing activity in at least one of these cell lines were selected for further screening. From these compounds, thirty compounds were selected for further evaluation as broad-spectrum anti-proliferative agents as shown in the following Table 3.
row,SMILES,activity in growth inhibition of human cancer cell compared to Compound 23
1,"Cc1ccc2cc(-c3c(C)cccc3C)nc(N)c2c1 [Compound 43, 7-Methyl-3-(2,6-dimethylphenyl)isoquinolin-1-amine]",equal or better activity
2,"COc1cc(OC)cc(-c2cc3ccc(N(C)C)cc3c(N)n2)c1.Cl [Compound 16, 3-(3,5-Dimethoxyphenyl)-N^7,N^7-dimethylisoquinoline-1,7-diamine hydrochloride]",equal or better activity
3,"Cc1ccc(-c2cc3cc(C)ccc3c(N)n2)cc1 [Compound 36, 6-Methyl-3-p-tolylisoquinolin-1-amine]",equal or better activity

# System: HCT116 (colon)
# Experiment: In vitro cell proliferation assay (SRB), HCT116
# Format: cell-based
# Settings: Homo sapiens, HCT-116; SRB method, 96 hours; Table 3; read-out: Inhibition of cell growth (IC50, μM) HCT116
# Experimental: as §1, §2, §3, §4, §5
row,IC50,SMILES
1,0.074 µM,"Cc1ccc2cc(-c3c(C)cccc3C)nc(N)c2c1 [Compound 43, 7-Methyl-3-(2,6-dimethylphenyl)isoquinolin-1-amine]"
2,0.029 µM,"COc1cc(OC)cc(-c2cc3ccc(N(C)C)cc3c(N)n2)c1.Cl [Compound 16, 3-(3,5-Dimethoxyphenyl)-N^7,N^7-dimethylisoquinoline-1,7-diamine hydrochloride]"
3,0.18 µM,"Cc1ccc(-c2cc3cc(C)ccc3c(N)n2)cc1 [Compound 36, 6-Methyl-3-p-tolylisoquinolin-1-amine]"

# System: SNB-19 (glioblastoma)
# Experiment: In vitro cell proliferation assay (SRB), SNB19
# Format: cell-based
# Settings: Homo sapiens, SRB method, 96 hours, read-out: Inhibition of cell growth (IC50, μM) SNB19
# Experimental: as §1, §2, §3, §4, §5
row,IC50,SMILES
1,0.12 µM,"Cc1ccc2cc(-c3c(C)cccc3C)nc(N)c2c1 [Compound 43, 7-Methyl-3-(2,6-dimethylphenyl)isoquinolin-1-amine]"
2,0.057 µM,"COc1cc(OC)cc(-c2cc3ccc(N(C)C)cc3c(N)n2)c1.Cl [Compound 16, 3-(3,5-Dimethoxyphenyl)-N^7,N^7-dimethylisoquinoline-1,7-diamine hydrochloride]"
3,0.21 µM,"Cc1ccc(-c2cc3cc(C)ccc3c(N)n2)cc1 [Compound 36, 6-Methyl-3-p-tolylisoquinolin-1-amine]"

# System: SK-MEL-28 (melanoma)
# Experiment: In vitro cell proliferation assay (SRB), SK-MEL-28
# Format: cell-based
# Settings: Homo sapiens, SRB method, 96 hours, read-out: Inhibition of cell growth (IC50, μM) SK-MEL-28
# Experimental: as §1, §2, §3, §4, §5
row,IC50,SMILES
1,0.12 µM,"Cc1ccc2cc(-c3c(C)cccc3C)nc(N)c2c1 [Compound 43, 7-Methyl-3-(2,6-dimethylphenyl)isoquinolin-1-amine]"
2,0.045 µM,"COc1cc(OC)cc(-c2cc3ccc(N(C)C)cc3c(N)n2)c1.Cl [Compound 16, 3-(3,5-Dimethoxyphenyl)-N^7,N^7-dimethylisoquinoline-1,7-diamine hydrochloride]"
3,0.25 µM,"Cc1ccc(-c2cc3cc(C)ccc3c(N)n2)cc1 [Compound 36, 6-Methyl-3-p-tolylisoquinolin-1-amine]"

# System: PC3 (prostate)
# Experiment: In vitro cell proliferation assay (SRB), PC3
# Format: cell-based
# Settings: Homo sapiens; SRB method, 96 hours; read-out: Inhibition of cell growth (IC50, μM) PC3
# Experimental: as §1, §2, §3, §4, §5
row,IC50,SMILES
1,0.12 µM,"Cc1ccc2cc(-c3c(C)cccc3C)nc(N)c2c1 [Compound 43, 7-Methyl-3-(2,6-dimethylphenyl)isoquinolin-1-amine]"
2,0.048 µM,"COc1cc(OC)cc(-c2cc3ccc(N(C)C)cc3c(N)n2)c1.Cl [Compound 16, 3-(3,5-Dimethoxyphenyl)-N^7,N^7-dimethylisoquinoline-1,7-diamine hydrochloride]"
3,0.22 µM,"Cc1ccc(-c2cc3cc(C)ccc3c(N)n2)cc1 [Compound 36, 6-Methyl-3-p-tolylisoquinolin-1-amine]"

# System: MDA-MB-231 (breast)
# Experiment: In vitro cell proliferation assay (SRB), MDA-MB-231
# Format: cell-based
# Settings: Homo sapiens, SRB method, 96 hours, read-out: Inhibition of cell growth (IC50, μM) MDA-MB-231
# Experimental: as §1, §2, §3, §4, §5
row,IC50,SMILES
1,0.051 µM,"Cc1ccc2cc(-c3c(C)cccc3C)nc(N)c2c1 [Compound 43, 7-Methyl-3-(2,6-dimethylphenyl)isoquinolin-1-amine]"
2,0.027 µM,"COc1cc(OC)cc(-c2cc3ccc(N(C)C)cc3c(N)n2)c1.Cl [Compound 16, 3-(3,5-Dimethoxyphenyl)-N^7,N^7-dimethylisoquinoline-1,7-diamine hydrochloride]"
3,0.15 µM,"Cc1ccc(-c2cc3cc(C)ccc3c(N)n2)cc1 [Compound 36, 6-Methyl-3-p-tolylisoquinolin-1-amine]"

# System: PANC-1 (pancreas)
# Experiment: In vitro cell proliferation assay (SRB), PANC-1
# Format: cell-based
# Settings: Homo sapiens, SRB method, 96 hours, read-out: Inhibition of cell growth (IC50, μM) PANC-1
# Experimental: as §1, §2, §3, §4, §5
row,IC50,SMILES
1,0.079 µM,"Cc1ccc2cc(-c3c(C)cccc3C)nc(N)c2c1 [Compound 43, 7-Methyl-3-(2,6-dimethylphenyl)isoquinolin-1-amine]"
2,0.026 µM,"COc1cc(OC)cc(-c2cc3ccc(N(C)C)cc3c(N)n2)c1.Cl [Compound 16, 3-(3,5-Dimethoxyphenyl)-N^7,N^7-dimethylisoquinoline-1,7-diamine hydrochloride]"
3,0.2 µM,"Cc1ccc(-c2cc3cc(C)ccc3c(N)n2)cc1 [Compound 36, 6-Methyl-3-p-tolylisoquinolin-1-amine]"

# System: OVCAR-3 (ovary)
# Experiment: In vitro cell proliferation assay (SRB), OVCAR3
# Format: cell-based
# Settings: Homo sapiens, SRB method, 96 hours, read-out: Inhibition of cell growth (IC50, μM) OVCAR3
# Experimental: as §1, §2, §3, §4, §5
row,IC50,SMILES
1,0.075 µM,"Cc1ccc2cc(-c3c(C)cccc3C)nc(N)c2c1 [Compound 43, 7-Methyl-3-(2,6-dimethylphenyl)isoquinolin-1-amine]"
2,0.025 µM,"COc1cc(OC)cc(-c2cc3ccc(N(C)C)cc3c(N)n2)c1.Cl [Compound 16, 3-(3,5-Dimethoxyphenyl)-N^7,N^7-dimethylisoquinoline-1,7-diamine hydrochloride]"
3,0.15 µM,"Cc1ccc(-c2cc3cc(C)ccc3c(N)n2)cc1 [Compound 36, 6-Methyl-3-p-tolylisoquinolin-1-amine]"

# System: Caki-1 (kidney)
# Experiment: In vitro cell proliferation assay (SRB), Caki-1
# Format: cell-based
# Settings: Homo sapiens, SRB method, 96 hours, read-out: Inhibition of cell growth (IC50, μM) Caki-1
# Experimental: as §1, §2, §3, §4, §5
row,SMILES,IC50
1,"Cc1ccc2cc(-c3c(C)cccc3C)nc(N)c2c1 [Compound 43, 7-Methyl-3-(2,6-dimethylphenyl)isoquinolin-1-amine]",0.048 µM
2,"COc1cc(OC)cc(-c2cc3ccc(N(C)C)cc3c(N)n2)c1.Cl [Compound 16, 3-(3,5-Dimethoxyphenyl)-N^7,N^7-dimethylisoquinoline-1,7-diamine hydrochloride]",0.038 µM
3,"Cc1ccc(-c2cc3cc(C)ccc3c(N)n2)cc1 [Compound 36, 6-Methyl-3-p-tolylisoquinolin-1-amine]",0.16 µM
